Source: US20220289698A1, “INHIBITORS OF HUMAN ATGL” (Karl-Franzens-Universität Graz, priority 2019, published 2022)
Like-named read-outs stand apart in the source and are kept apart here.

Tests used:
[1] = test system: differentiated SGBS adipocytes; assay: Isoproterenol-stimulated lipolysis in differentiated SGBS adipocytes; type: cell-based; conditions: Homo sapiens, 2 h pretreatment, 1 μM isoproterenol 1 h
Experimental: Human differentiated SGBS adipocytes were pretreated with DMSO or ATGL inhibitors for 2 h. Subsequently, lipolysis was stimulated with 1 μM Isoproterenol for 1 h and fatty acid release was determined from media via NEFA Reagent (Wako Diagnostics). Samples were measured in triplicates.
Human differentiated SGBS adipocytes were pretreated with DMSO or ATGL inhibitors for 2 h. Subsequently, lipolysis was stimulated with 1 μM Isoproterenol for 1 h and glycerol release was determined from media via Free glycerol reagent (Sigma Aldrich). Samples were measured in triplicates.

hPNPLA9 = molecular target: T1, hPNPLA9 (Homo sapiens, UniProt O60733); assay: hPNPLA9 off-target inhibition; type: biochemical; conditions: read-out: hPNPLA9 off-target inhibition [% inhibition at 100 μM]
T1 construct: made in house; host or cells: Expi cells (lysate)
T1 sequence (O60733 1-806): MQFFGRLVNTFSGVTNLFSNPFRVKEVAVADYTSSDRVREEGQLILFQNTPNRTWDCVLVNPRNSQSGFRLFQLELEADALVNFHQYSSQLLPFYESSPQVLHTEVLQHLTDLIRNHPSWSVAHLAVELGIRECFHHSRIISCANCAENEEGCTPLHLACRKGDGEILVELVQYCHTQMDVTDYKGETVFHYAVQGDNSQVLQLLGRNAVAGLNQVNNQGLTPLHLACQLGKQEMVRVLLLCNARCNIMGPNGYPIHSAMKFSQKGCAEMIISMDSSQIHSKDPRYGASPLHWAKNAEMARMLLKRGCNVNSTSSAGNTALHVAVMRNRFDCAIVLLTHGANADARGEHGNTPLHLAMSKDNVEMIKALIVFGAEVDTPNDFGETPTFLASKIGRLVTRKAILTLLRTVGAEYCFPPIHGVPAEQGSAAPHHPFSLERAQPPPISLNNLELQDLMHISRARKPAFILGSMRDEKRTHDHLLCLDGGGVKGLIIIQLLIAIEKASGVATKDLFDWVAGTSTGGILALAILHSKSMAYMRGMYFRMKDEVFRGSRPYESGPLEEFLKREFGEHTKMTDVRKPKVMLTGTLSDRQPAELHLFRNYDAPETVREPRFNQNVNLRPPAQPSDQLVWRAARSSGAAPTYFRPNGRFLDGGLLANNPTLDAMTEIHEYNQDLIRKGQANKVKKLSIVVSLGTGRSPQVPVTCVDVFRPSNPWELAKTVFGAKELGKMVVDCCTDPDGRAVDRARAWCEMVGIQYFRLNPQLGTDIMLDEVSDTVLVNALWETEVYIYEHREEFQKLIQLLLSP
Experimental: Expi lysates expressing hPNPLA9 were treated with 100 μM Inhibitors and incubated with 1 mM C8 monoacylglycerol substrate (containing 5 mM CHAPS, 50 mM NaPh buffer ph7.4, 0.15 M NaCl) for 40 min. Glycerol release was determined via Free glycerol reagent (Sigma Aldrich). Samples measured in triplicates, […]

pig vWAT = assay: Pig vWAT inhibition, visceral adipose tissue lysates + CGI-58; type: biochemical
Experimental: Lysates from visceral adipose tissue of pigs (Sus scrofa) were incubated with recombinant purified ATGL co-activator CGI-58 and ATGL inhibitors at 50 μM. Subsequently, substrate containing radiolabeled triolein was added and liberated FA were extracted and quantified by liquid scintillation. Inhibitors were dissolved in DMSO which was used as control. Samples were measured in triplicates.

hPNPLA6 = molecular target: T2, hPNPLA6 (Homo sapiens, UniProt Q8IY17); assay: hPNPLA6 off-target inhibition; type: biochemical; conditions: read-out: hPNPLA6 off-target inhibition [% inhibition at 100 μM]
T2 construct: made in house; host or cells: Expi cells (lysate)
T2 sequence (Q8IY17 1-1375): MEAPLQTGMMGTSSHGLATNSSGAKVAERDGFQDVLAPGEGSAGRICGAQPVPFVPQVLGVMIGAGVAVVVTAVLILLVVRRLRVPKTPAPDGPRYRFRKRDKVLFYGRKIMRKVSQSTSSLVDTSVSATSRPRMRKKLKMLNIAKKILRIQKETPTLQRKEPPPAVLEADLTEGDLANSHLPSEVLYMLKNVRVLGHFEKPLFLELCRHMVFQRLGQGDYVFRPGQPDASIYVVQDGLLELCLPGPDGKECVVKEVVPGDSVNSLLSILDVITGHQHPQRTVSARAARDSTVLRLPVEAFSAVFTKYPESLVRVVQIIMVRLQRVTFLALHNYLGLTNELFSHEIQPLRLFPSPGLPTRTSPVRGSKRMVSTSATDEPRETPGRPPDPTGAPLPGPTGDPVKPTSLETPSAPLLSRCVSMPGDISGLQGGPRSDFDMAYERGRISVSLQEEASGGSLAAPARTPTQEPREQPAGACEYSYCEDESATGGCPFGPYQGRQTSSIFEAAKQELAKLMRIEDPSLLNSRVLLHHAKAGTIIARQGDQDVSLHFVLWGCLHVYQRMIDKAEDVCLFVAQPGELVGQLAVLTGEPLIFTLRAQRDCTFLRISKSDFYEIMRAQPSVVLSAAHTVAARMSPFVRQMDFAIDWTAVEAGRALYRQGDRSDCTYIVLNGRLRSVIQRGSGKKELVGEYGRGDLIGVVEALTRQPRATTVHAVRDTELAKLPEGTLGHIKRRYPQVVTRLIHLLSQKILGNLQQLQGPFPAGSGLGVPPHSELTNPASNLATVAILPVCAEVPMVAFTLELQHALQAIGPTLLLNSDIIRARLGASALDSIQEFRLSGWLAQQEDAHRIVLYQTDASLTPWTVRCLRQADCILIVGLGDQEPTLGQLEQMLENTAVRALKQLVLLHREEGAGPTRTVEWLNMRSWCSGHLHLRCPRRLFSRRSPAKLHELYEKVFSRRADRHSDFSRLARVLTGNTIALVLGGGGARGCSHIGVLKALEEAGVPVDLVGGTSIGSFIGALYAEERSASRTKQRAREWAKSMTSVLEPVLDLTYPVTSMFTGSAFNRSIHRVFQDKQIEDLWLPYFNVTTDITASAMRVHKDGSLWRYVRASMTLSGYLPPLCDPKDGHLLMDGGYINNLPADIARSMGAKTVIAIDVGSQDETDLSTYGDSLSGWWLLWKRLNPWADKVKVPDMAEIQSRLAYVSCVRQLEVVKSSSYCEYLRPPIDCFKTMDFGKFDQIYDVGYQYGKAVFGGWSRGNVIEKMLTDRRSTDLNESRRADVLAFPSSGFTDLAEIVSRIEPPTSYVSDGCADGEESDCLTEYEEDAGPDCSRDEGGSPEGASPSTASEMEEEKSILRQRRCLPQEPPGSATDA
Experimental: Expi lysates expressing hPNPLA6 were treated with 100 μM Inhibitors and incubated with 1 mM C8 monoacylglycerol substrate (containing 5 mM CHAPS, 50 mM NaPh buffer ph7.4, 0.15 M NaCl) for 40 min, Glycerol release was determined via Free glycerol reagent (Sigma Aldrich). Samples measured in triplicates.

[2] = fatty acid release, read-out: IC50 SGBS FA release
[3] = glycerol release, read-out: IC50 SGBS glycerol release

In the case of `CCOc1ccc(-c2cc(OC)cc(C(=O)OC(C)C)n2)cc1` [Example 35], the IC50 [1, 2] is reported as 1000 nM, the IC50 [1, 3] is reported as 2000 nM and the inhibition at 100 µM (hPNPLA9) is reported as 0%.

`CC#CCOC(=O)c1csc(-c2ccc(OCC)cc2)n1` [Example 209, But-2-yn-1-yl 2-(4-ethoxyphenyl)thiazole-4-carboxylate] was tested, and the “pig vWAT inhibition [% inhibition at 50 μM” value (pig vWAT) was 0%, the inhibition at 100 µM (hPNPLA9) was 0% and the inhibition at 100 µM (hPNPLA6) was 0%.

In the case of `C#C[C@H](C)OC(=O)c1csc(-c2ccc(OCC)cc2)n1` [Example 210, (S)-But-3-yn-2-yl 2-(4-ethoxyphenyl)thiazole-4-carboxylate], the IC50 [1, 2] is reported as 600 nM, the IC50 [1, 3] is reported as 1000 nM and the “pig vWAT inhibition [% inhibition at 50 μM” value (pig vWAT) is reported as 5%. For the same compound, the inhibition at 100 µM (hPNPLA9) was 0% and the inhibition at 100 µM (hPNPLA6) was 0%.

For `CCOc1ccc(-c2cccc(C(=O)OCc3ccco3)n2)cc1` [Example 190, Furan-2-ylmethyl 6-(4-ethoxyphenyl)picolinate], the IC50 [1, 2] was 12000 nM, the IC50 [1, 3] was 25000 nM and the “pig vWAT inhibition [% inhibition at 50 μM” value (pig vWAT) was 0%. For the same compound, the inhibition at 100 µM (hPNPLA9) was 0% and the inhibition at 100 µM (hPNPLA6) was 0%.

With `CCOc1ccc(-c2nc(C(=O)OCc3ccc(Br)s3)cs2)cc1` [Example 224, (5-Bromothiophen-2-yl)methyl 2-(4-ethoxyphenyl)thiazole-4-carboxylate] the “pig vWAT inhibition [% inhibition at 50 μM” value (pig vWAT) was 15%, the inhibition at 100 µM (hPNPLA9) was 0% and the inhibition at 100 µM (hPNPLA6) was 0%.

With `COc1cc(C(=O)OC(C)C)nc(-c2ccc(OC(C)C)cc2)c1` [Example 201, Isopropyl 6-(4-isopropoxyphenyl)-4-methoxypicolinate] the “pig vWAT inhibition [% inhibition at 50 μM” value (pig vWAT) was 0%, the inhibition at 100 µM (hPNPLA9) was 0% and the inhibition at 100 µM (hPNPLA6) was 0%.

`CCOc1ccc(-c2nc(C(=O)OCc3ccc(Cl)s3)cs2)cc1` [Example 223, (5-Chlorothiophen-2-yl)methyl 2-(4-ethoxyphenyl)thiazole-4-carboxylate] was tested, and the “pig vWAT inhibition [% inhibition at 50 μM” value (pig vWAT) was 15%, the inhibition at 100 µM (hPNPLA9) was 0% and the inhibition at 100 µM (hPNPLA6) was 0%.

For `C#C[C@@H](C)OC(=O)c1csc(-c2ccc(OCC)cc2)n1` [Example 211, (R)-But-3-yn-2-yl 2-(4-ethoxyphenyl)thiazole-4-carboxylate], the IC50 [1, 2] was 900 nM, the IC50 [1, 3] was 900 nM and the “pig vWAT inhibition [% inhibition at 50 μM” value (pig vWAT) was 5%. For the same compound, the inhibition at 100 µM (hPNPLA9) was 0% and the inhibition at 100 µM (hPNPLA6) was 0%.

With `CCOc1ccc(-c2cccc(C(=O)OCc3cccs3)n2)cc1` [Example 189, Thiophen-2-ylmethyl 6-(4-ethoxyphenyl)picolinate] the “pig vWAT inhibition [% inhibition at 50 μM” value (pig vWAT) was 15%, the inhibition at 100 µM (hPNPLA9) was 0% and the inhibition at 100 µM (hPNPLA6) was 0%.

With `CCCCOC(=O)c1csc(-c2ccc(OCC)cc2)n1` [Example 212, Butyl 2-(4-ethoxyphenyl)thiazole-4-carboxylate] the “pig vWAT inhibition [% inhibition at 50 μM” value (pig vWAT) was 5%, the inhibition at 100 µM (hPNPLA9) was 0% and the inhibition at 100 µM (hPNPLA6) was 0%.

`CCOc1ccc(-c2nc(C(=O)OCc3ccsc3)cs2)cc1` [Example 215, Thiophen-3-ylmethyl 2-(4-ethoxyphenyl)thiazole-4-carboxylate] was tested, and the IC50 [1, 2] was 3000 nM, the IC50 [1, 3] was 4000 nM and the “pig vWAT inhibition [% inhibition at 50 μM” value (pig vWAT) was 15%. It also gave an inhibition at 100 µM (hPNPLA9) of 0% and an inhibition at 100 µM (hPNPLA6) of 0%.

For `CCOc1ccc(-c2nc(C(=O)OCc3cccs3)cs2)cc1` [Example 152, Thiophen-2-ylmethyl 2-(4-ethoxyphenyl)thiazole-4-carboxylate], the “pig vWAT inhibition [% inhibition at 50 μM” value (pig vWAT) was 0%, the inhibition at 100 µM (hPNPLA9) was 0% and the inhibition at 100 µM (hPNPLA6) was 0%.

For `CCOc1ccc(-c2nc(C(=O)OCc3ccoc3)cs2)cc1` [Example 216, Furan-3-ylmethyl 2-(4-ethoxyphenyl)thiazole-4-carboxylate], the IC50 [1, 2] was 800 nM, the IC50 [1, 3] was 1000 nM and the “pig vWAT inhibition [% inhibition at 50 μM” value (pig vWAT) was 15%. For the same compound, the inhibition at 100 µM (hPNPLA9) was 0% and the inhibition at 100 µM (hPNPLA6) was 0%.
